The text below walks through data of publication PMC11249646, “Small-Molecule Disruptors of the Interaction between Calcium- and Integrin-Binding Protein 1 and Integrin αIIbβ3 as Novel Antiplatelet Agents” (ACS Pharmacology & Translational Science, 2024).

The target in this assay is T1, CIB1 and αIIb interaction (CIB1-GST : F-αIIb peptide) (Homo sapiens, UniProt Q99828).
T1 construct: made in house; host or cells: BL-21 plus RIL cells (E. coli)
T1 sequence (Q99828 1-191): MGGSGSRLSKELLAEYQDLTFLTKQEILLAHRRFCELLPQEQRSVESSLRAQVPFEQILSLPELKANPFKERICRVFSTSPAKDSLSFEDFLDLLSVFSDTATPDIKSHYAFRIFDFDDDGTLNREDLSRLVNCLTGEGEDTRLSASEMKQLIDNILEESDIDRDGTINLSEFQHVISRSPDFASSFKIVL
Kind of assay: FP assay, 1536-well qHTS format (primary and confirmatory screen). Type of assay: binding. Conditions: for Efficacy (%): negative = inhibition; for Curve Class: negative sign = inhibitory curve. On the technique in general: Quantitative high-throughput screening tests each substance at several concentrations.

The mark [1] stands for this setting: qHTS primary screen hits, Table S2.
Where [2] appears, read: qHTS primary screen hits, Table S2, read-out: IC50.
The mark [3] stands for this setting: qHTS primary screen hits, Table S2, several classes where COUNT > 1.
The mark [4] stands for this setting: qHTS primary screen of LOPAC/NPACT libraries.
The mark [5] stands for this setting: qHTS primary screen of LOPAC/NPACT libraries, read-out: IC50.
Where [6] appears, read: qHTS FP screen hits, Table S2, read-out: IC50.

Where two headings read alike, the source gives them in different places.

For `CC(=O)NC(c1ccco1)c1cc(F)c2cccnc2c1O` (stereo not drawn) [NCGC00183702-01], under setting [1], the “Efficacy (%)” value is -24% and the “Curve Class” value is recorded as -2.4. Also, the IC50 under setting [2] came to 79.4 µM.
For `S=P(N1CC1)(N1CC1)N1CC1` [NCGC00095042-06], 126 µM corresponded to half-maximal inhibition (IC50 [μM]) (IC50). Further, under setting [1], the “Efficacy (%)” value was -44% and the “Curve Class” value was -2.2.
Regarding `COc1ccc(/C=C/C(=O)Nc2ccccc2C(=O)O)cc1OC` [NCGC00018185-09], the “Efficacy (%)” value under setting [1] was -29%. The “Curve Class” value under setting [3] was -2.2. Also, the IC50 under setting [2] turned out to be 39.8 µM.
On to `CCN(CC)CCCN(c1ccccc1)C1Cc2ccccc2C1.Cl` [NCGC00167576-02], for which, under setting [1], the “Efficacy (%)” value is recorded as -57%. The “Curve Class” value under setting [3] is reported as -3. Also, under setting [2], the IC50 came to 89.1 µM.
As to `COc1ccc(NC(=O)c2cccs2)cn1.O=C(O)C(F)(F)F` [NCGC00229661-01], the “Efficacy (%)” value under setting [1] is -41%. In addition, the “Curve Class” value under setting [3] is listed as -2.2. Further, the IC50 under setting [2] turned out to be 50.1 µM.
`O=C1Nc2ccccc2/C1=C1/Nc2ccccc2/C1=N\O` [NCGC00015545-07]: under setting [4], the “Efficacy (%)” value is on record as -18% and the “Curve Class” value is on record as -1.2. Besides, under setting [5], the IC50 came to 3.5 µM.
In the case of `CCCCCCCCCCCC[N+](C)(C)Cc1ccccc1.[Cl-]` [NCGC00164245-03], under setting [1], the “Efficacy (%)” value is -38% and the “Curve Class” value is listed as -2.2. Also, the IC50 under setting [2] was determined as 50.1 µM.
In the case of `CO[C@@H](Cc1ccc(OCCc2nc(-c3ccccc3)oc2C)c2ccsc12)C(=O)O` [NCGC00378922-01], under setting [4], the “Efficacy (%)” value is recorded as -15% and the “Curve Class” value was -1.4. For the same compound, the IC50 under setting [5] stood at 20 µM.
Take `COC(=O)CC1OC(C)C2=C(O)c3c(O)cccc3C(=O)C23OC13` (stereo not drawn) [NCGC00381362-01]: under setting [4], the “Efficacy (%)” value is -22% and the “Curve Class” value is reported as -2.4. Further, the IC50 under setting [5] was determined as 25.1 µM.
As for `NS(=O)(=O)c1ccc(Cc2c(-c3ccc(F)c(-c4cccs4)c3)nn(-c3nc(C(=O)O)cs3)c2CC2CC2)cc1F.O=C(O)C(F)(F)F` [NCGC00390071-01], the “Efficacy (%)” value under setting [1] is -33%. The “Curve Class” value under setting [3] is on record as -2.2. For the same compound, the IC50 under setting [2] was 50.1 µM.
Turning to `C=CCc1ccccc1OCC(O)CN[C@]1(C)CCC[C@H](C(C)(C)NC(=O)CBr)C1` (stereo partly drawn) [NCGC00162095-02], under setting [4], the “Efficacy (%)” value is -35% and the “Curve Class” value is given as -2.4. Under setting [5], the IC50 turned out to be 56.2 µM.
As for `CN(Cc1cnc2nc(N)nc(N)c2n1)c1ccc(C(=O)N[C@@H](CCC(=O)O)C(=O)O)cc1` [NCGC00260705-01], under setting [1], the “Efficacy (%)” value is recorded as -58% and the “Curve Class” value was -2.2. The IC50 under setting [2] stood at 44.7 µM.
Regarding `N#C/C(=C1\Nc2ccccc2S1)c1ccnc(NCCc2cccnc2)n1` [NCGC00387772-02], under setting [4], the “Efficacy (%)” value is listed as -26% and the “Curve Class” value is -1.4. Besides, under setting [5], the IC50 was 5.6 µM.
Take `CC(C)N1CCc2c(sc(NC(=O)Cc3ccccc3)c2-c2nc3ccccc3s2)C1.O=C(O)C(F)(F)F` [NCGC00184841-01]: under setting [1], the “Efficacy (%)” value is on record as -104% and the “Curve Class” value is reported as -2.1. Moreover, the IC50 under setting [2] turned out to be 28.2 µM.
For the compound `COc1ccc2c(c[n+](C)c3c4cc5c(cc4ccc23)OCO5)c1OC` [NCGC00015225-07], under “qHTS FP screen hits, Table S2”, the “Efficacy (%)” value is given as -30%. Moreover, the IC50 under setting [6] was found to be 24.6 µM.
On to `COc1cc2c(cc1OC)-c1[nH]nc(Nc3cccc(F)c3)c1C2` [NCGC00343986-02], for which, under setting [4], the “Efficacy (%)” value is given as -25% and the “Curve Class” value was -2.4. Moreover, the IC50 under setting [5] is 63.1 µM.
`CCN(CC)CCOc1ccc(Nc2ncc3cc(-c4c(Cl)cccc4Cl)c(=O)n(C)c3n2)cc1.Cl.Cl.O` [NCGC00261745-01]: under setting [1], the “Efficacy (%)” value is given as -36% and the “Curve Class” value is -2.2. Moreover, the IC50 under setting [2] stood at 50.1 µM.
For the compound `Cc1ccc(N)cc1O` [NCGC00090702-02], under setting [1], the “Efficacy (%)” value is -38% and the “Curve Class” value is reported as -2.2. Moreover, the IC50 under setting [2] is 126 µM.
Consider `CC(=O)N1CCN(c2ccc(NC[C@H]3CO[C@](Cn4ccnc4)(c4ccc(Cl)cc4Cl)O3)cc2)CC1` [NCGC00250372-03], for which the “Efficacy (%)” value under setting [1] was -45%. Under setting [3], the “Curve Class” value was -2.4. Moreover, the IC50 under setting [2] was 44.7 µM.
Regarding `O=C(O)CCCC[P+](c1ccccc1)(c1ccccc1)c1ccccc1.[Br-]` [NCGC00261975-01], under setting [1], the “Efficacy (%)” value is recorded as -44%. Further, the “Curve Class” value under setting [3] is on record as -2.4. Moreover, the IC50 under setting [2] was found to be 56.2 µM.
Consider `COc1ccnc(C[S+]([O-])c2nc3cc(OC(F)F)ccc3[nH]2)c1OC` (stereo not drawn) [NCGC00388526-02], for which, under setting [4], the “Efficacy (%)” value was -26% and the “Curve Class” value is given as -2.4. For the same compound, under setting [5], the IC50 came out at 56.2 µM.
Take `Nc1nc2[nH]cnc2c(=S)[nH]1` [NCGC00263442-01]: under setting [1], the “Efficacy (%)” value is given as -56% and the “Curve Class” value is recorded as -3. The IC50 under setting [2] came out at 79.4 µM.
As for `Cc1cc(C)nc(NC(=S)N2CCN(c3cc4ccccc4cn3)CC2)c1.O=C(O)C(F)(F)F` [NCGC00244142-01], the “Efficacy (%)” value under setting [1] is given as -31%. Further, the “Curve Class” value under setting [3] was -2.4. The IC50 under setting [2] is 79.4 µM.
In the case of `C=C1CC(=O)C2OC2(C)CC2OC(=O)C(=C)C2C(O)C1OC(=O)/C(C)=C\C` (stereo not drawn) [NCGC00381057-01], under setting [4], the “Efficacy (%)” value was -21% and the “Curve Class” value is recorded as -1.4. The IC50 under setting [5] is 14.1 µM.
`Cc1c(-c2cccc3c(CCCOc4cccc5ccccc45)c(C(=O)O)n(Cc4cccnc4)c23)c(COc2ccc(N3CCN(S(=O)(=O)N(C)C)CC3)cc2)nn1C` [NCGC00347282-01]: under setting [1], the “Efficacy (%)” value is -34%. For the same compound, the “Curve Class” value under setting [3] is reported as -3. In addition, the IC50 under setting [2] worked out at 30.4 µM.
`CN(C)[C@@H]1C(=O)C(C(=O)NCN2CCCC2)=C(O)[C@@]2(O)C(=O)C3=C(O)c4c(O)cccc4[C@@](C)(O)[C@H]3C[C@@H]12` [NCGC00263906-02]: under setting [1], the “Efficacy (%)” value was -27% and the “Curve Class” value is listed as -2.4. Further, the half-maximal inhibitory concentration (IC50) under setting [2] amounted to 56.2 µM.
As for `O=C(Nc1ccc([N+](=O)[O-])cc1Cl)c1cc(Cl)ccc1O` [NCGC00015735-08], under setting [4], the “Efficacy (%)” value was -12% and the “Curve Class” value is recorded as -2.4. Besides, the IC50 under setting [5] is 63.1 µM.
For the compound `CN1CCN(CCCN2c3ccccc3Sc3ccc(C(F)(F)F)cc32)CC1.Cl.Cl` [NCGC00261917-01], under setting [4], the “Efficacy (%)” value is reported as -35% and the “Curve Class” value was -2.4.
On to `O=C(O)C(F)(F)F.OCc1cn(Cc2ccc(O)c3ncccc23)cn1` [NCGC00183377-01], for which the “Efficacy (%)” value under setting [1] was -33%. The “Curve Class” value under setting [3] is listed as -2.2. Besides, the IC50 under setting [2] stood at 44.7 µM.
Consider `CN1C[C@H](C(=O)N[C@]2(C)O[C@@]3(O)[C@@H]4CCCN4C(=O)[C@H](Cc4ccccc4)N3C2=O)C[C@@H]2c3cccc4[nH]cc(c34)C[C@H]21.CS(=O)(=O)O` [NCGC00261042-01], for which, under setting [4], the “Efficacy (%)” value was -32% and the “Curve Class” value is -2.4. Under setting [5], the IC50 was found to be 56.2 µM.
As for `CCc1c(-c2ccccc2)c(-c2ccccc2)nn1-c1ccccc1-c1cccc(OCC(=O)O)c1` [NCGC00387254-02], the “Curve Class” value (qHTS primary screen hits, Table S2, NPACT library) is listed as -2.4. Moreover, the “Efficacy (%)” value under setting [1] is recorded as -30%. Moreover, the IC50 under setting [2] is 56.2 µM.
Consider `CCOC(=O)C1=C(C)NC(C)=C(C(=O)OC)C1c1cccc(Cl)c1Cl` (stereo not drawn) [NCGC00015455-08], for which, under setting [4], the “Efficacy (%)” value is listed as -26% and the “Curve Class” value is reported as -2.2. Besides, the IC50 under setting [5] turned out to be 50.1 µM.
As to `COc1ccc2c(c1)c(CC(=O)O)c(C)n2Cc1ccc(Cl)cc1` [NCGC00015217-05], under setting [1], the “Efficacy (%)” value is given as -44% and the “Curve Class” value is recorded as -2.2. For the same compound, under setting [2], the IC50 came to 39.8 µM.
In the case of `OCC1O[C@H]([S-])[C@H](O)[C@@H](O)[C@@H]1O.[Au+]` (stereo partly drawn) [NCGC00162223-02], under setting [4], the “Efficacy (%)” value is reported as -26% and the “Curve Class” value is -3. Further, the IC50 under setting [5] turned out to be 89.1 µM.
Turning to `O=c1oc(Cl)c(Cl)c2ccccc12` [NCGC00015369-06], under setting [4], the “Efficacy (%)” value is -37% and the “Curve Class” value was -2.2. In addition, the IC50 under setting [5] was 31.6 µM.
Take `O=C(O)C(F)(F)F.O=C(c1ccc2ccccc2c1)c1no[n+]([O-])c1C(=O)c1ccc2ccccc2c1` [NCGC00351316-01]: under setting [1], the “Efficacy (%)” value is recorded as -35% and the “Curve Class” value is reported as -2.2. Also, the IC50 under setting [2] was 44.7 µM.
For `CS(=O)(=O)c1ccc(C(=O)C2C(=O)CCCC2=O)c([N+](=O)[O-])c1` [NCGC00163843-03], the “Efficacy (%)” value under setting [1] is given as -30%. Further, the “Curve Class” value under setting [3] is on record as -2.4. Also, the IC50 under setting [2] was determined as 126 µM.
As for `Nc1c(C(=O)Nc2ccc(F)cc2)sc2nc(-c3cccs3)ccc12.O=C(O)C(F)(F)F` [NCGC00371815-01], the “Efficacy (%)” value under setting [1] is on record as -31%. Besides, the “Curve Class” value under setting [3] is reported as -2.4. In addition, the IC50 under setting [2] stood at 79.4 µM.
`CC[PH](CC)(CC)[Au][S][C@@H]1O[C@H](COC(C)=O)[C@@H](OC(C)=O)[C@H](OC(C)=O)[C@H]1OC(C)=O` [NCGC00160391-05]: where the note is “qHTS FP screen hits, Table S2”, the “Efficacy (%)” value is given as -30%. For the same compound, under setting [6], the IC50 amounted to 17.1 µM.
For `Cc1cc(-c2cc(O)ccc2Cl)cc2nnc(Nc3ccc(OCCN4CCCC4)cc3)nc12.Cl` [NCGC00378690-01], under setting [4], the “Efficacy (%)” value is -25% and the “Curve Class” value is given as -2.4. Under setting [5], the IC50 is 56.2 µM.

One may read the IC50 as the point on the concentration scale where inhibition reaches its midpoint.
